According to the supplement of paper PMC10307832:

How the values were obtained:
Experiment in all cases: relative viability (nuclei count vs DMSO), 5 days (fraction); higher = more cells survive
[1] = compound: CC(=O)Nc1cccc(-n2c(=O)n(C3CC3)c(=O)c3c(Nc4ccc(I)cc4F)n(C)c(=O)c(C)c32)c1 [Trametinib] + C[C@@H](Oc1cc(-c2cnn(C3CCNCC3)c2)cnc1N)c1c(Cl)ccc(F)c1Cl [Crizotinib] (partner 1 µM)
How it was run: (§1)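 Lung cancer cell lines in 1536-well plates got either a single drug or a fixed anchor-drug dose together with five library-drug doses (not always all listed) in √10 steps, by pin tool, on the day after seeding. Nuclei were counted after 5 days, and relative viability is the treated-to-vehicle ratio of nuclei counts. Values are medians of duplicate plates.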

[2] = compound: CC(=O)Nc1cccc(-n2c(=O)n(C3CC3)c(=O)c3c(Nc4ccc(I)cc4F)n(C)c(=O)c(C)c32)c1 [Trametinib] + C[C@]1(O)C[C@@H](c2nc(-c3ccc4ccc(-c5ccccc5)nc4c3)c3c(N)nccn32)C1 [Linsitinib] (partner 1 µM)
How it was run: as §1

[3] = compound: CN1C=C(C2=CC=CC=C21)/C=C\3/C4=C(C=CC=N4)NC3=O + C[C@@H](Oc1cc(-c2cnn(C3CCNCC3)c2)cnc1N)c1c(Cl)ccc(F)c1Cl [Crizotinib] (partner 1 µM)
How it was run: as §1

[4] = compound: CN1C=C(C2=CC=CC=C21)/C=C\3/C4=C(C=CC=N4)NC3=O + Nc1nc2[nH]cc(CCc3ccc(C(=O)N[C@@H](CCC(=O)O)C(=O)O)cc3)c2c(=O)[nH]1 [Pemetrexed] (partner 0.2 µM)
How it was run: as §1

| Cell Line | relative viability ([1]; first compound 0.0025 µM) | relative viability ([1]; first compound 0.007906 µM) | relative viability ([1]; first compound 0.025 µM) | relative viability ([1]; first compound 0.07906 µM) | relative viability ([1]; first compound 0.25 µM) | relative viability ([2]; first compound 0.0025 µM) | relative viability ([2]; first compound 0.007906 µM) | relative viability ([2]; first compound 0.025 µM) | relative viability ([2]; first compound 0.07906 µM) | relative viability ([2]; first compound 0.25 µM) | relative viability ([3]; first compound 0.02 µM) | relative viability ([3]; first compound 0.06325 µM) | relative viability ([3]; first compound 0.6325 µM) | relative viability ([3]; first compound 2 µM) | relative viability ([4]; first compound 0.02 µM) | relative viability ([4]; first compound 0.06325 µM) | relative viability ([4]; first compound 0.2 µM) | relative viability ([4]; first compound 0.6325 µM) | relative viability ([4]; first compound 2 µM) | relative viability ([3]; first compound 0.2 µM) |
| --- | --- | --- | --- | --- | --- | --- | --- | --- | --- | --- | --- | --- | --- | --- | --- | --- | --- | --- | --- | --- |
| NCI-H23 | 0.389 | 0.428 | 0.34 | 0.387 | 0.263 | 0.438 | 0.356 | 0.277 | 0.313 | 0.226 | 0.453 | 0.504 | 0.62 | 0.624 | 0.678 | 0.598 | 0.576 | 0.788 | 0.654 | – |
| NCI-H1944 | 1 | 0.763 | 0.762 | 0.629 | 0.326 | 1.08 | 0.79 | 0.643 | 0.606 | 0.428 | 0.939 | 0.995 | 1.24 | 1.18 | 0.549 | 0.558 | – | 0.617 | 0.652 | – |
| NCI-H1651 | 0.898 | 0.804 | 0.828 | 0.743 | 0.729 | 0.969 | 0.763 | 0.888 | 0.835 | 0.659 | 0.804 | 0.905 | 0.819 | 0.895 | 0.651 | 0.579 | 0.574 | 0.648 | 0.644 | 0.876 |
| EBC-1 | 0.196 | 0.181 | 0.187 | 0.159 | 0.162 | 1 | 1.15 | 0.456 | 0.407 | 0.189 | 0.233 | 0.182 | 0.183 | 0.207 | – | – | – | – | – | 0.192 |
| COR-L 105 | 0.729 | 0.605 | 0.374 | 0.329 | 0.285 | 0.788 | 0.754 | 0.49 | 0.394 | 0.367 | 0.655 | 0.515 | 0.849 | 0.885 | 1.07 | 0.969 | 1.12 | 1.28 | 1.3 | 0.637 |
| RERF-LC-KJ | 0.794 | 0.819 | 0.778 | 0.664 | 0.763 | 0.862 | 0.792 | 0.751 | 0.791 | 0.793 | 0.831 | 0.829 | 0.77 | 0.718 | 0.436 | 0.482 | 0.493 | 0.475 | 0.471 | 0.787 |
| NCI-H1793 | – | – | – | – | – | 0.806 | 0.523 | 0.309 | 0.302 | 0.296 | – | – | – | – | 0.876 | 1.11 | 0.73 | 0.785 | 0.988 | – |
| CAL-12T | 0.651 | 0.853 | 0.434 | 0.367 | 0.213 | 0.79 | 0.607 | 0.484 | 0.428 | 0.341 | 0.552 | 0.654 | 0.81 | 0.743 | 1.1 | 1.13 | 1.21 | 1.34 | 1.34 | 0.549 |
